Laboratory results: US20050010126A1, “Assessment of concentration of inhalational compounds in the brain” (priority 2001, published 2005)

How the values were obtained:
[1] = assessment of mixed venous and brain anesthetic concentration from inspired and expired concentrations
Text: At the stage of anesthesia (after the FRC is filled with the gas), the equation: Ci′−Ce′=M (Ci′−Cb′) can be used to calculate the compound concentration in the mixed venous blood (Cb′), in which Ci′ and Cb′ are the inspired compound concentration and the expired compound concentration, respectively: Cb′=[Ci′(M−1)+Ce′]/M.
As discussed above, Cb=(A+J)/2 and (A+J)/2=(Ce′+2Cb′)/3 or (Ce′+3Cb′)/4, the compound concentration in the brain (Cb) can be expressed as: Cb=(Ce′+2Cb′)/3 or (Ce+3Cb′)/4.
Thus, with measurements of the expired compound concentration (Ce′) and the mixed venous compound concentration (Cb′), the compound concentration in the brain (Cb) can be readily obtained. Below are two examples of how to assess brain anesthetic concentrations by this method.
A tube is connected to the circle system of an anesthesia machine consisting of gas flowmeters, a compound vaporizer, supply of oxygen, air and nitrous oxide gas, and a ventilator (e.g., Detex-Ohmeda, Finland, or Drager, Germany). The gas is then delivered to the patient by the anesthesia machine. […] Near the connection between the circle system and the tube, a side arm sampling site is linked to a gas monitoring equipment (e.g., an infra-red monitor or a mass spectrometer). Typically, a sampling speed is 200 mL/min. […] A more precise determination of M is performed at the end of 3 min, when 85-95% of the FRC has been filled with the gas.

[2] = alveolar membrane factor M of an inhalational compound; assay type: in vivo, patients
Text: As the gas penetrates the alveolar membrane and enters the pulmonary capillary blood flow, it must follow the Fick's principal. See Katzung, R. G. (1998) Basic principles, introduction in basic and clinical pharmacology Appleton-Lange p 5. The Fick's principal defines the rate of penetrating the alveolar membrane as: DAk/x (Ci-Cb') D is a diffusion constant, A is the area of the membrane (proportional to the pulmonary capillary flow or cardiac output), k is a solubility coefficient, x is the thickness of the membrane, Ci is an inspired compound concentration, and Cb' is the mixed venous compound concentration. Assuming that the pulmonary capillary flow or the cardiac output is constant, then, for a given inhalational compound, DAk/x is a constant. This constant DAk/x is defined as a membrane factor, M, which varies from one inhalational compound to another. […] Since the membrane factor may vary slightly among patients, a more precise determination of the membrane factor can be performed as described below. The rate of penetrating the alveolar membrane DAk/x (Ci-Cb') can be expressed as: M(Ci-Cb'), in which M is DAk/x. When measuring an uptake of an inhalational compound-containing gas in each breathing cycle, the rate of the uptake is a function of a difference between the inspired concentration (Ci) and the expired concentration (Ce). The difference can be expressed as: Ci-Ce. Ci-Ce. and M (Ci-Cb') both represent the rate of uptake of an inhalational compound: Ci-Ce=M(Ci-Cb'), or M=(Ci-Ce)/(Ci-Cb'). During the initial introduction of an inhalational compound (before the FRC is filled with the gas), the membrane factor M for an individual can be approximated by assuming Cb'=0: M=(Ci-Ce)/Ci=1-(Ce/Ci).

[3] = general value for the compound, for most patients

Structure (SMILES): FC(F)OC(F)C(F)(F)F (stereo not drawn) [desflurane]
- concentration in the brain (Cb) = (Ce'+3Cb')/4 ([1]; desflurane, inspired 6.2%, expired 5.4%, M 0.2): 3.0%
- patient's membrane factor M = (Ci-Ce)/Ci ([2]; desflurane, inspired 6%, expired 4.8% at 3-4 minutes (85-95% of FRC filled)): 0.2
- membrane factor M (DAk/x) [2, 3]: 0.2

Structure (SMILES): FC(F)(F)C(Cl)Br (stereo not drawn) [halothane]
- membrane factor M (DAk/x) ([2]; human, in vivo): 0.5

Structure (SMILES): FC(F)OC(Cl)C(F)(F)F (stereo not drawn) [isoflurane]
- membrane factor M (DAk/x) ([2]; human, in vivo): 0.4

Structure (SMILES): COC(F)(F)C(Cl)Cl [methoxyflurane]
- membrane factor M (DAk/x) [2, 3]: 0.8

Structure (SMILES): FCOC(C(F)(F)F)C(F)(F)F [sevoflurane]
- brain concentration (Cb) = (Ce'+2Cb')/3 ([1]; human, in vivo, 30 min): 1.77%
- concentration in the mixed venous blood (Cb') ([1]; human, in vivo, 30 min): 1.16%
- patient's membrane factor M = (Ci-Ce)/Ci ([2]; human, in vivo): 0.214
